Experimental data from ChEMBL document CHEMBL1152679, “The lifespan-promoting effect of acetic acid and Reishi polysaccharide” (2009).
Active and inactive are the calls of the source. The calls are words filed in the database; no cut-off is given here.

What follows are molecules tested on Caenorhabditis elegans (assay: Longevity-promoting activity in wild type Caenorhabditis elegans N2 assessed as increase in lifespan at 50 ppm by microscopic analysis).
Type: functional, organism-based

SMILES | Activity
O=C(O)CC(O)(CC(=O)O)C(=O)O | inactive
CC(=O)O | Active
O=C(O)c1ccccc1 | inactive
